Type in all cases: cell-based
Experiment [1] relates to BaF3_HER2WT cells. Briefly: Cell growth inhibition assay, BaF3_HER2WT. Particulars: 3 days treatment, CellTiterGlo 2.0, read-out: HER2 WT IC50 (nM), cell growth inhibition. Background: ATP-based viability assays read luminescence as a measure of living cells.
The test system of experiment [2] is BaF3_EGFRWT cells. Briefly: Cell growth inhibition assay, BaF3_EGFRWT. Conditions: 80 ng/mL recombinant human EGF, 3 days treatment, CellTiterGlo 2.0, read-out: EGFR WT IC50 (nM), cell growth inhibition.
The subject of experiment [3] is BaF3_HER2YVMA cells. Briefly: Cell growth inhibition assay, BaF3_HER2YVMA. Particulars: BaF3_HER2YVMA cells, 3 days treatment, CellTiterGlo 2.0, read-out: HER2-YVMA IC50 (nM), cell growth inhibition.

Here are results for 18 compounds from patent publication US20250276983A1, “COMPOUNDS AND METHODS FOR MODULATING HER2” (IAMBIC THERAPEUTICS, INC., priority 2022, published 2025).

SMILES strings stand for the structures. Where two headings read alike, the source gives them in different places.

Usually IC50 stands for the concentration that gives 50% inhibition. With `C=CC(=O)N1C2CCC1CC(c1ccn3ncnc(Nc4ccc(Oc5ccn6ncnc6c5)c(C)c4)c13)C2` (single isomer, unassigned) [Examples 124 and 125, first eluting isomer, 1-(3-(4-((4-([1,2,4]triazolo[1,5-a]pyridin-7-yloxy)-3-methylphenyl)amino)pyrrolo[2,1-f][1,2,4]triazin-5-yl)-8-azabicyclo[3.2.1]octan-8-yl)prop-2-en-1-one], the IC50 in experiment [1] (72 h), in experiment [2] (72 h) and in experiment [3] (72 h) was under 200 nM in each case.
For the compound `C=C(CN(C)C)C(=O)N1C2CCC1CC(c1ccn3ncnc(Nc4ccc(Oc5ccn6ncnc6c5)c(C)c4)c13)C2` (single isomer, unassigned) [Examples 126 and 127, first eluting isomer, 1-(3-(4-((4-([1,2,4]triazolo[1,5-a]pyridin-7-yloxy)-3-methylphenyl)amino)pyrrolo[2,1-f][1,2,4]triazin-5-yl)-8-azabicyclo[3.2.1]octan-8-yl)-2-((dimethylamino)methyl)prop-2-en-1-one], the IC50 was under 200 nM in experiment [1] (72 h), 1500 to 5000 nM in experiment [2] (72 h) and 200 to 500 nM in experiment [3].
For the compound `C=C(CN(C)C)C(=O)N1C2CCC1CC(c1ccn3ncnc(Nc4ccc(Oc5ccn6ncnc6c5)c(C)c4)c13)C2` (single isomer, unassigned) [Examples 126 and 127, second eluting isomer, 1-(3-(4-((4-([1,2,4]triazolo[1,5-a]pyridin-7-yloxy)-3-methylphenyl)amino)pyrrolo[2,1-f][1,2,4]triazin-5-yl)-8-azabicyclo[3.2.1]octan-8-yl)-2-((dimethylamino)methyl)prop-2-en-1-one], the figures for the half-inhibitory concentration (IC50) in experiment [1], in experiment [2] and in experiment [3] were under 200 nM, 1500 to 5000 nM and 500 to 1500 nM, respectively.
As to `C=C(CN(C)C)C(=O)N1CC2CCC1CC2c1ccn2ncnc(Nc3ccc(Oc4ccn5ncnc5c4)c(C)c3)c12` (single isomer, unassigned) [Examples 135 and 136, first eluting isomer, 1-(5-(4-((4-([1,2,4]triazolo[1,5-a]pyridin-7-yloxy)-3-methylphenyl)amino)pyrrolo[2,1-f][1,2,4]triazin-5-yl)-2-azabicyclo[2.2.2]octan-2-yl)-2-((dimethylamino)methyl)prop-2-en-1-one], the IC50 is under 200 nM in experiment [1] (72 h), 1500 to 5000 nM in experiment [2] and under 200 nM in experiment [3] (72 h).
Take `C=C(CN(C)C)C(=O)N1CC2CCC1CC2c1ccn2ncnc(Nc3ccc(Oc4ccn5ncnc5c4)c(C)c3)c12` (single isomer, unassigned) [Examples 135 and 136, second eluting isomer, 1-(5-(4-((4-([1,2,4]triazolo[1,5-a]pyridin-7-yloxy)-3-methylphenyl)amino)pyrrolo[2,1-f][1,2,4]triazin-5-yl)-2-azabicyclo[2.2.2]octan-2-yl)-2-((dimethylamino)methyl)prop-2-en-1-one]: the IC50 in experiment [1] is under 200 nM; in experiment [2], under 200 nM; in experiment [3], 200 to 500 nM.
For the compound `Cc1cc(Nc2ncnn3ccc(C4CC5CCC4CN5C(=O)/C=C/CN(C)C)c23)ccc1Oc1ccn2ncnc2c1` (single isomer, unassigned) [Examples 137 and 138, second eluting isomer, (E)-1-(5-(4-((4-([1,2,4]triazolo[1,5-a]pyridin-7-yloxy)-3-methylphenyl)amino)pyrrolo[2,1-f][1,2,4]triazin-5-yl)-2-azabicyclo[2.2.2]octan-2-yl)-4-(dimethylamino)but-2-en-1-one], the IC50 was in the range of 500 to 1500 nM in experiment [1] (72 h), 1500 to 5000 nM in experiment [2] (72 h) and 1500 to 5000 nM in experiment [3] (72 h).
With `C=CC(=O)N1CC2CCC1CC2c1ccn2ncnc(Nc3ccc(Oc4ccn5ncnc5c4)c(C)c3)c12` (single isomer, unassigned) [Examples 139 and 140, first eluting isomer, 1-(5-(4-((4-([1,2,4]triazolo[1,5-a]pyridin-7-yloxy)-3-methylphenyl)amino)pyrrolo[2,1-f][1,2,4]triazin-5-yl)-2-azabicyclo[2.2.2]octan-2-yl)prop-2-en-1-one], the IC50 is under 200 nM in experiment [1], 1500 to 5000 nM in experiment [2] (72 h) and under 200 nM in experiment [3].
Turning to `C=CC(=O)N1CC2CCC1CC2c1ccn2ncnc(Nc3ccc(Oc4ccn5ncnc5c4)c(C)c3)c12` (single isomer, unassigned) [Examples 139 and 140, second eluting isomer, 1-(5-(4-((4-([1,2,4]triazolo[1,5-a]pyridin-7-yloxy)-3-methylphenyl)amino)pyrrolo[2,1-f][1,2,4]triazin-5-yl)-2-azabicyclo[2.2.2]octan-2-yl)prop-2-en-1-one], the IC50 lay within 500 to 1500 nM in experiment [1], 1500 to 5000 nM in experiment [2] and 1500 to 5000 nM in experiment [3].
In the case of `C=C(CN(C)C)C(=O)N1CCCC(c2ccn3ncnc(Nc4ccc(Oc5ccn6ncnc6c5)c(C)c4)c23)CC1` (single isomer, unassigned) [Examples 143 and 144, first eluting isomer, 1-(4-(4-((4-([1,2,4]triazolo[1,5-a]pyridin-7-yloxy)-3-methylphenyl)amino)pyrrolo[2,1-f][1,2,4]triazin-5-yl)azepan-1-yl)-2-((dimethylamino)methyl)prop-2-en-1-one], the half-inhibitory concentration (IC50) in experiment [1] (72 h) is under 200 nM; in experiment [2] (72 h), 1500 to 5000 nM; in experiment [3], 500 to 1500 nM.
For the compound `C=C(CN(C)C)C(=O)N1CCCC(c2ccn3ncnc(Nc4ccc(Oc5ccn6ncnc6c5)c(C)c4)c23)CC1` (single isomer, unassigned) [Examples 143 and 144, second eluting isomer, 1-(4-(4-((4-([1,2,4]triazolo[1,5-a]pyridin-7-yloxy)-3-methylphenyl)amino)pyrrolo[2,1-f][1,2,4]triazin-5-yl)azepan-1-yl)-2-((dimethylamino)methyl)prop-2-en-1-one], the concentration for half-maximal inhibition (IC50) was under 200 nM in experiment [1], 1500 to 5000 nM in experiment [2] and under 200 nM in experiment [3].
For `Cc1cc(Nc2ncnn3ccc(C4CCCN(C(=O)C(F)Cl)CC4)c23)ccc1Oc1ccn2ncnc2c1` (single isomer, unassigned) [Examples 145, 146, 147 and 148, first eluting isomer, 1-(4-(4-((4-([1,2,4]triazolo[1,5-a]pyridin-7-yloxy)-3-methylphenyl)amino)pyrrolo[2,1-f][1,2,4]triazin-5-yl)azepan-1-yl)-2-chloro-2-fluoroethan-1-one], the values for the concentration for half-maximal inhibition (IC50) in experiment [1] (72 h), in experiment [2] and in experiment [3] were under 200 nM, 1500 to 5000 nM and 200 to 500 nM, respectively.
Consider `Cc1cc(Nc2ncnn3ccc([C@@H]4CCCN(C(=O)[C@H](F)Cl)CC4)c23)ccc1Oc1ccn2ncnc2c1` (single isomer, unassigned) [Examples 145, 146, 147 and 148, fourth eluting isomer], for which the half-maximal inhibitory concentration (IC50) in experiment [1] (72 h) was 200 to 500 nM; in experiment [2] (72 h), 1500 to 5000 nM; in experiment [3] (72 h), 500 to 1500 nM.
Take `Cc1cc(Nc2ncnn3ccc(C4CCCN(C(=O)C(F)Cl)CC4)c23)ccc1Oc1ccn2ncnc2c1` (single isomer, unassigned) [Examples 145, 146, 147 and 148, second eluting isomer, 1-(4-(4-((4-([1,2,4]triazolo[1,5-a]pyridin-7-yloxy)-3-methylphenyl)amino)pyrrolo[2,1-f][1,2,4]triazin-5-yl)azepan-1-yl)-2-chloro-2-fluoroethan-1-one]: the values for the IC50 in experiment [1], in experiment [2] and in experiment [3] were under 200 nM, 500 to 1500 nM and under 200 nM, respectively.
As to `Cc1cc(Nc2ncnn3ccc(C4CCCN(C(=O)C(F)Cl)CC4)c23)ccc1Oc1ccn2ncnc2c1` (single isomer, unassigned) [Examples 145, 146, 147 and 148, third eluting isomer, 1-(4-(4-((4-([1,2,4]triazolo[1,5-a]pyridin-7-yloxy)-3-methylphenyl)amino)pyrrolo[2,1-f][1,2,4]triazin-5-yl)azepan-1-yl)-2-chloro-2-fluoroethan-1-one], the concentration for half-maximal inhibition (IC50) was in the range of 200 to 500 nM in experiment [1], 1500 to 5000 nM in experiment [2] and 500 to 1500 nM in experiment [3].
Regarding `Cc1cc(Nc2ncnn3ccc(C4CN(C(=O)/C=C/C5CCCN5C)C4)c23)ccc1Oc1ccn2ncnc2c1` (single isomer, unassigned) [Examples 171 and 172, second eluting isomer, (E)-1-(3-(4-((4-([1,2,4]triazolo[1,5-a]pyridin-7-yloxy)-3-methylphenyl)amino)pyrrolo[2,1-f][1,2,4]triazin-5-yl)azetidin-1-yl)-3-(1-methylpyrrolidin-2-yl)prop-2-en-1-one], the values for the IC50 in experiment [1] (72 h), in experiment [2] (72 h) and in experiment [3] (72 h) were under 200 nM, 1500 to 5000 nM and under 200 nM, respectively.
For `Cc1cc(Nc2ncnn3ccc(C4CCN(C(=O)[C@H](F)Cl)CC4)c23)ccc1Oc1ccn2ncnc2c1` (single isomer, unassigned) [Examples 173 and 174, first eluting isomer], the results for the 50% inhibitory concentration (IC50) in experiment [1] (72 h), in experiment [2] (72 h) and in experiment [3] (72 h) were 200 to 500 nM, 1500 to 5000 nM and 1500 to 5000 nM, respectively.
Consider `Cc1cc(Nc2ncnn3ccc(C4CCN(C(=O)[C@@H](F)Cl)CC4)c23)ccc1Oc1ccn2ncnc2c1` (single isomer, unassigned) [Examples 173 and 174, second eluting isomer], for which the IC50 was under 200 nM in experiment [1] (72 h), 1500 to 5000 nM in experiment [2] (72 h) and under 200 nM in experiment [3] (72 h).
As to `Cc1cc(Nc2ncnn3ccc(C4CC5CCC4CN5C(=O)/C=C/CN(C)C)c23)ccc1Oc1ccn2ncnc2c1` (single isomer, unassigned; first eluting) [Examples 137 and 138, first eluting isomer], the values for the IC50 in experiment [1], in experiment [2] and in experiment [3] were under 200 nM, 1500 to 5000 nM and 200 to 500 nM, respectively.
